In patent US20040039049A1, “Stable amorphous calcium pseudomonate and processes for the preparation thereof” (CHEMAGIS LTD, priority 2002, published 2004):

Legend:
[1] = on storage, prior patents; cited from earlier work
[2] = Decomposition of pseudomonic acid during the process of preparing the calcium salt; format: physicochemical; details: for Related Substances (from process) P.A. D / Decomposition Products D.P. I / Decomposition Products D.P. II / Related Substances (from process) P.A. B / Related Substances (from process) P.A. C / Related Substances (from process) P.A. E: before / after preparation of the calcium salt; for Decomposition Products D.P. I / Decomposition Products D.P. II / Related Substances (from process) P.A. B / Related Substances (from process) P.A. C / Related Substances (from process) P.A. E: unit assumed
Description: The calcium pseudomonate solution was prepared by a slow addition of solid calcium hydroxide to a suspension of pseudomonic acid in water. The calcium salt formed is gradually dissolved. The almost clear solution is filtered and frozen.
Pseudomonic acid (100 gr.) is suspended in water (1000 ml). The mixture is cooled below 15° C. and calcium hydroxide (ca. 7.0 gr.) is added gradually until the pH is 8. The slightly turbid mixture is filtered and the solution is frozen and lyophilized. The product obtained is crushed and milled to give amorphous calcium pseudomonate in quantitative yield.

[3] = Repeat of prior-art process (evaporation of solvents); format: physicochemical; details: prior-art process repeated, regardless of conditions used to distill out the water
Description: Process for the preparation of amorphous calcium pseudomonate is described in U.S. Pat. No. 4,916,155, U.S. Pat. No. 5,191,093 and U.S. Pat. No. 5,436,266. A solution of pseudomonic acid is dissolved in a mixture of methanol and water and neutralized to pH 7.1 with calcium oxide. The solution is filtered and the solvents are evaporated under reduced pressure to give solid foam. Trituration of the foam with diethyl ether affords amorphous calcium pseudomonate.
This decomposition occurred regardless of the conditions used to distill out the water.

[4] = Stability on storage (related substances and decomposition products); format: physicochemical; details: for Decomposition Products D.P. I / Related Substances (from process) P.A. B / Related Substances (from process) P.A. C / Related Substances (from process) P.A. D / Related Substances (from process) P.A. E: unit assumed

For C/C(=C\C(=O)OCCCCCCCCC(=O)[O-])C[C@@H]1OC[C@H](C[C@@H]2O[C@H]2[C@@H](C)[C@H](C)O)[C@@H](O)[C@H]1O.C/C(=C\C(=O)OCCCCCCCCC(=O)[O-])C[C@@H]1OC[C@H](C[C@@H]2O[C@H]2[C@@H](C)[C@H](C)O)[C@@H](O)[C@H]1O.[Ca+2] [amorphous calcium pseudomonate, calcium pseudomonate], the “Thermal stability (in words)” value [1] is listed as “thermally labile”, the “Related Substances (from process) P.A. D” value [2] is listed as 1.25 and the Decomposition Products D.P. I [2] is listed as 0.62%. The Decomposition Products D.P. II [2] was 1.1%, the Related Substances (from process) P.A. B [2] was 0.4% and the Related Substances (from process) P.A. C [2] was 0.1%. For the same compound, the Related Substances (from process) P.A. E [2] was 0.15%, the “Decomposition during the evaporation of the solvents (in words)” value [3] was “appreciable decomposition” and the “Decomposition on storage (in words)” value ([4]; stored at an appropriate temperature) was “did not show decomposition”. For the same compound, the “Decomposition Products D.P. II” value ([4]; t = 0) was 1.00, the Decomposition Products D.P. I ([4]; t = 0) was 0.44% and the Related Substances (from process) P.A. B ([4]; t = 0) was 0.1%. For the same compound, the Related Substances (from process) P.A. C ([4]; t = 0) was 0.09%, the Related Substances (from process) P.A. D ([4]; t = 0) was 0.9% and the Related Substances (from process) P.A. E ([4]; t = 0) was 0.1%. The “Decomposition Products D.P. II” value ([4]; t = 18 months (at 2-8° C.)) was 1.06, the Decomposition Products D.P. I ([4]; t = 18 months (at 2-8° C.)) was 0.62% and the Related Substances (from process) P.A. B ([4]; t = 18 months (at 2-8° C.)) was 0.18%. For the same compound, the Related Substances (from process) P.A. C ([4]; t = 18 months (at 2-8° C.)) was 0.08%, the Related Substances (from process) P.A. D ([4]; t = 18 months (at 2-8° C.)) was 0.97% and the Related Substances (from process) P.A. E ([4]; t = 18 months (at 2-8° C.)) was 0.09%.
With C/C(=C\C(=O)OCCCCCCCCC(=O)O)C[C@@H]1OC[C@H](C[C@@H]2O[C@H]2[C@@H](C)[C@H](C)O)[C@@H](O)[C@H]1O [pseudomonic acid, Pseudomonic acid A] the “Related Substances (from process) P.A. D” value [2] was 1.17, the Decomposition Products D.P. I [2] was 0.58% and the Decomposition Products D.P. II [2] was 0.81%. For the same compound, the Related Substances (from process) P.A. B [2] was 0.57%, the Related Substances (from process) P.A. C [2] was 0.16% and the Related Substances (from process) P.A. E [2] was 0.21%. For the same compound, the “Decomposition during the preparation of the calcium salt (in words)” value ([2]; process of the present invention) was “no decomposition”.
